Measurements from ChEMBL document CHEMBL1133279, “Aminoalkyl adenylate and aminoacyl sulfamate intermediate analogues differing greatly in affinity for their cognate Staphylococcus aureus aminoacyl tRNA synthetases” (Bioorg Med Chem Lett, 2000).

Columns and labels:
[1] = tested on: Threonyl-tRNA synthetase (Staphylococcus aureus); assay: Inhibitory activity against cognate Staphylococcus aureus threonyl tRNA synthetase at 300 uM
[2] = tested on: Histidyl-tRNA synthetase (Staphylococcus aureus); assay: Inhibitory activity against cognate Staphylococcus aureus Histidyl-tRNA synthetase at 300 uM

Row | inhibition [1] | inhibition [2] | SMILES
1 | 60% | – | C[C@@H](O)[C@H](N)COP(=O)(O)OC[C@H]1O[C@@H](n2cnc3c(N)ncnc32)[C@H](O)[C@@H]1O
2 | – | 20% | Nc1ncnc2c1ncn2[C@@H]1O[C@H](COP(=O)(O)OC[C@@H](N)Cc2c[nH]cn2)[C@@H](O)[C@H]1O
